Assay results from patent US8697840B2, “Peptide inhibition of lung epithelial apoptosis and pulmonary fibrosis” (Board of Regents, The University of Texas System, priority 2008, dated 2014).
Entries after “also recorded” stand apart in the source; their conditions may differ.

How the values were obtained:
[1] = test system: bleo-induced DNA fragmentation; assay: DNA fragmentation of genomic DNA from mouse lung extracts; type: in vivo; details: i.p. 0.1 ml osmotic minipump, 10 mM peptide, one day after intranasal bleo; lungs after 16 days
Procedure: Alternatively, PP-1 or CP-1 were administered in a continuous manner by i.p. implantation of an 0.1 ml osmotic minipump filled with PP-1 or CP-1 (10 mM or 2.92 mg/100 μl) one day after intranasal instillation of bleo. Lungs were harvested after 16 days. Total dose administered over that period was about 147 mg/kg. The apoptotic scores were calculated by counting the number of apoptotic cells in each field. Genomic DNA was isolated from saline, bleo, Bleo+PP-1 or Bleo+CP-1 mouse lung extracts, and subjected to DNA fragmentation.

Beas2B cells = assay: Bleo-induced apoptosis of Beas2B cells, flow cytometry (anti-Annexin-V antibody and propidium iodide); type: cell-based, human; details: 28 h, 40 μg/ml bleo, uPA 20 nM, anti-β1-integrin antibody 1 μg/ml, PP-1 10 nM
Procedure: FIG. 6 is a graph showing apoptosis (% apoptotic cells) after treatment of cells with a β1-integrin activator (anti-β1-integrin antibody), uPA, a combination of the antibody and uPA, or PP-1, along with appropriate controls. Beas2B cells were treated for 28 h with PBS or 40 μg/ml of Bleo in the presence or absence of uPA (20 nM) or PBS as control, with anti-β1-integrin antibody (1 μg/ml, B1), or mouse IgG (mIgG) as control, a combination of the antibody (or control antibody with uPA, and with PP-1 peptide (10 nM) or the CP-1 control peptide (10 nM) as described above at 37° C. Cells were harvested after trypsinization and LEC apoptosis was determined by flow cytometry after exposing the cells to anti-Annexin-V antibody and propidium iodide (as described for FIG. 2A).
Expression of p53 and PAI-1 shown in Example I were correlated with LEC apoptosis induced by bleo (FIG. 6). […] Beas2B cells were treated for 28 h with PBS or 40 μg/ml of bleo (Bleo) with uPA (20 nM), and/or anti-β1-integrin antibody (1 μg/ml, B1), control mouse IgG (mIgG) PP-1 peptide (10 nM) or CP-1 control peptide (10 nM) as described above at 37° C. Cells were trypsinized and LEC apoptosis was determined by flow cytometry after exposing the cells to anti-Annexin-V antibody and propidium iodide (as described for FIG. 2A).

[2] = test system: primary small airway epithelial (SAE) cells; assay: SAE cell proliferation, DNA synthesis by [3H]-thymidine uptake; type: cell-based, human; details: uPA between 5 and 20 nM; bleomycin 40 μg/ml as positive control
Procedure: FIGS. 2A-2B is a set of graphs showing dose-dependent induction of primary small airway epithelial (SAE) cell apoptosis and proliferation by uPA. FIG. 2A, SAE cells were treated for 48 h with 0-20 nM uPA at 37° C. Apoptotic cells were analyzed by flow cytometry using anti-annexin-V antibody and propidium iodide (PI). Bleo (40 μg/ml) was used as positive control (90). FIG. 2B, The cells were next treated with uPA as described in FIG. 1A and DNA synthesis was determined by [^3H]-thymidine uptake as described (5).

p53 = assay: Western blot of bleo-treated Beas2B cells: p53; type: cell-based, human; details: 40 μg/ml bleo, 28 h
Procedure: (§1) FIG. 4 depicts a set of Western blots showing the show the effect of bleo on uPA, uPAR, PAI-1 and p53 expression in LEC in vitro.
(§2) Beas2B cells were treated for 28 h with PBS or 40 μg/ml of bleo in the presence or absence of uPA or its ATF (20 nM), anti-β1-integrin monoclonal antibody (B1), (which activates β1-integrin by clustering), mouse IgG (mIgG), uPA+B1, uPA+mIgG, PP-1 (10 nM), or scrambled control peptide CP-1 (10 nM) at 37° C. In the case of uPA and PAI-1, the full length uPA was substituted with ATF, because uPA-mediated autoinduction or induction of PAI-1 occurs via the interaction of the ATF with uPAR (3-4). […] The membrane proteins were subjected to Western blotting using anti-uPAR antibody.

uPA = assay: Western blot of bleo-treated Beas2B cells: uPA; type: cell-based, human; details: 40 μg/ml bleo, 28 h
Procedure: as §1, §2

uPAR = assay: Western blot of bleo-treated Beas2B cells: uPAR; type: cell-based, human; details: 40 μg/ml bleo, 28 h
Procedure: as §1, §2

PAI-1 = assay: Western blot of bleo-treated Beas2B cells: PAI-1; type: cell-based, human; details: 40 μg/ml bleo, 28 h
Procedure: as §1, §2

Row | Substance | bleo-induced DNA fragmentation [1] | protection of LECs from bleo-induced apoptosis (Beas2B cells) | cell proliferation of SAE cells [2] | p53 expression (p53) | uPA expression (uPA) | uPAR expression (uPAR) | PAI-1 expression (PAI-1)
1 | DGIWKASFTTFTVTKYWFYR [PP-1, residues 82-101 of human Cav-1, the caveolin-1 scaffolding domain] | protect against bleo-induced LEC apoptosis and DNA fragmentation | protected LECs from bleo-induced apoptosis; also recorded: more potent in protecting LECs than was uPA or anti-β1-integrin antibody | – | – | – | – | –
2 | Bleomycin | – | – | inhibited cell proliferation | induced | suppressing | suppressing | induced
